PubChem BioAssay AID1259407 (Chemical Carcinogenesis Research Information System (CCRIS), 2018)
Active and inactive are the calls of the source. No rule for the calls is given here.

Tested on: CCRIS mutagenicity, Ames/micronucleus/aberration tests
Assay: CCRIS mutagenicity studies
[1] = Test System: AMES SALMONELLA TYPHIMURIUM, Strain/Indicator: TA100, Metabolic Activation: NONE, Method: PREINCUBATION
[2] = Test System: AMES SALMONELLA TYPHIMURIUM, Strain/Indicator: TA100, Metabolic Activation: NONE, Method: STANDARD PLATE
[3] = Test System: AMES SALMONELLA TYPHIMURIUM, Strain/Indicator: TA1535, Metabolic Activation: NONE, Method: STANDARD PLATE

Measured: mutagenic call

OCC1=CCN2CC[C@@H](O)[C@@H]12
inactive: Test System: AMES SALMONELLA TYPHIMURIUM, Strain/Indicator: TA100, Metabolic Activation: HAMSTER, LIVER, S-9, PCB, Method: PREINCUBATION inactive; negative | Test System: AMES SALMONELLA TYPHIMURIUM, Strain/Indicator: TA100, Metabolic Activation: RAT, LIVER, S-9, PCB, Method: PREINCUBATION inactive; negative | Test System: UDS HAMSTER HEPATOCYTES, Strain/Indicator: THY INCORP, Metabolic Activation: NONE, Method: AUTORADIOGRAPHY inactive; negative | Test System: UDS MOUSE HEPATOCYTES, Strain/Indicator: THY INCORP, Metabolic Activation: NONE, Method: AUTORADIOGRAPHY inactive; negative | Test System: UDS RAT HEPATOCYTES, Strain/Indicator: THY INCORP, Metabolic Activation: NONE, Method: AUTORADIOGRAPHY inactive; negative

CNC(=O)CSP(=S)(OC)OC
inactive: Test System: AMES SALMONELLA TYPHIMURIUM, Strain/Indicator: TA97A, Metabolic Activation: NONE, Method: STANDARD PLATE inactive; negative | Test System: AMES SALMONELLA TYPHIMURIUM, Strain/Indicator: TA97A, Metabolic Activation: PLANT, HOMOGENATE, S-14, Method: STANDARD PLATE inactive; negative | Test System: AMES SALMONELLA TYPHIMURIUM, Strain/Indicator: TA97A, Metabolic Activation: S-9, Method: STANDARD PLATE inactive; negative | Test System: AMES SALMONELLA TYPHIMURIUM, Strain/Indicator: TA98, Metabolic Activation: NONE, Method: STANDARD PLATE inactive; negative | Test System: AMES SALMONELLA TYPHIMURIUM, Strain/Indicator: TA98, Metabolic Activation: PLANT, HOMOGENATE, S-14, Method: STANDARD PLATE inactive; negative | Test System: AMES SALMONELLA TYPHIMURIUM, Strain/Indicator: TA98, Metabolic Activation: RAT, LIVER, S-9, Method: STANDARD PLATE inactive; negative | Test System: AMES SALMONELLA TYPHIMURIUM, Strain/Indicator: TA98, Metabolic Activation: S-9, NADPH GENERATING SYSTEM, Method: STANDARD PLATE inactive; negative | Test System: AMES SALMONELLA TYPHIMURIUM, Strain/Indicator: TA98, Metabolic Activation: S-9, Method: STANDARD PLATE inactive; negative | Test System: AMES SALMONELLA TYPHIMURIUM, Strain/Indicator: TA98, Metabolic Activation: WHEAT SEEDLING, S-14, Method: STANDARD PLATE inactive; negative | [2] inactive; negative | Test System: AMES SALMONELLA TYPHIMURIUM, Strain/Indicator: TA100, Metabolic Activation: PLANT, HOMOGENATE, S-14, Method: STANDARD PLATE inactive; negative | Test System: AMES SALMONELLA TYPHIMURIUM, Strain/Indicator: TA100, Metabolic Activation: S-9, Method: STANDARD PLATE inactive; negative | Test System: AMES SALMONELLA TYPHIMURIUM, Strain/Indicator: TA102, Metabolic Activation: NONE, Method: STANDARD PLATE inactive; negative | Test System: AMES SALMONELLA TYPHIMURIUM, Strain/Indicator: TA102, Metabolic Activation: RAT, LIVER, S-9, Method: STANDARD PLATE inactive; negative | Test System: AMES SALMONELLA TYPHIMURIUM, Strain/Indicator: TA102, Metabolic Activation: S-9, NADPH GENERATING SYSTEM, Method: STANDARD PLATE inactive; negative | Test System: AMES SALMONELLA TYPHIMURIUM, Strain/Indicator: TA102, Metabolic Activation: WHEAT SEEDLING, S-14, Method: STANDARD PLATE inactive; negative | [3] inactive; negative | Test System: AMES SALMONELLA TYPHIMURIUM, Strain/Indicator: TA1535, Metabolic Activation: PLANT, HOMOGENATE, S-14, Method: STANDARD PLATE inactive; negative | Test System: AMES SALMONELLA TYPHIMURIUM, Strain/Indicator: TA1535, Metabolic Activation: RAT, LIVER, S-9, Method: STANDARD PLATE inactive; negative | Test System: AMES SALMONELLA TYPHIMURIUM, Strain/Indicator: TA1535, Metabolic Activation: S-9, NADPH GENERATING SYSTEM, Method: STANDARD PLATE inactive; negative | Test System: AMES SALMONELLA TYPHIMURIUM, Strain/Indicator: TA1535, Metabolic Activation: S-9, Method: STANDARD PLATE inactive; negative | Test System: AMES SALMONELLA TYPHIMURIUM, Strain/Indicator: TA1535, Metabolic Activation: WHEAT SEEDLING, S-14, Method: STANDARD PLATE inactive; negative | Test System: AMES SALMONELLA TYPHIMURIUM, Strain/Indicator: TA1537, Metabolic Activation: NONE, Method: STANDARD PLATE inactive; negative | Test System: AMES SALMONELLA TYPHIMURIUM, Strain/Indicator: TA1537, Metabolic Activation: S-9, NADPH GENERATING SYSTEM, Method: STANDARD PLATE inactive; negative
active: End Point: In vitro chromosomal aberrations, Test System: Human lymphocytes, Metabolic Activation: None active; positive (structural changes and ploidy) | Test System: AMES SALMONELLA TYPHIMURIUM, Strain/Indicator: G46, Metabolic Activation: HOST-MEDIATED, Method: STANDARD PLATE active; positive | [1] active; positive | Test System: AMES SALMONELLA TYPHIMURIUM, Strain/Indicator: TA100, Metabolic Activation: S-9 MIX, Method: STANDARD PLATE active; positive

C[15NH][15N]=O
active: [3] active; positive | Test System: E. COLI, Strain/Indicator: WP2, Metabolic Activation: NONE, Method: STANDARD PLATE active; positive | Test System: E. COLI, Strain/Indicator: WP2 UVRA, Metabolic Activation: NONE, Method: STANDARD PLATE active; positive

CC1CO1 (configuration not stated)
active: End Point: IN VITRO CHROMOSOMAL ABERRATIONS, Test System: CHL CELLS, Metabolic Activation: NONE active; positive (structural changes) | End Point: IN VITRO CHROMOSOMAL ABERRATIONS, Test System: CHL CELLS, Metabolic Activation: RAT, LIVER, S-9, SODIUM PHENOBARBITAL AND 5,6-BENZOFLAVONE active; positive (structural changes) | End Point: IN VITRO CHROMOSOMAL ABERRATIONS, Test System: CHO CELLS, Metabolic Activation: NONE active; positive; weak response | Test System: AMES SALMONELLA TYPHIMURIUM, Strain/Indicator: TA100, Metabolic Activation: HAMSTER, LIVER, S-9, AROCLOR 1254 (10%), Method: PREINCUBATION active; positive | Test System: AMES SALMONELLA TYPHIMURIUM, Strain/Indicator: TA100, Metabolic Activation: NONE, Method: FLASK VAPORIZATION active; positive | [1] active; positive | [2] active; positive | Test System: AMES SALMONELLA TYPHIMURIUM, Strain/Indicator: TA100, Metabolic Activation: NONE, Method: SUSPENSION/PLATE active; positive | Test System: AMES SALMONELLA TYPHIMURIUM, Strain/Indicator: TA100, Metabolic Activation: RAT, LIVER, S-9, AROCLOR 1254 (10%), Method: PREINCUBATION active; positive | Test System: AMES SALMONELLA TYPHIMURIUM, Strain/Indicator: TA100, Metabolic Activation: RAT, LIVER, S-9, AROCLOR 1254, Method: FLASK VAPORIZATION active; positive | Test System: AMES SALMONELLA TYPHIMURIUM, Strain/Indicator: TA100, Metabolic Activation: RAT, LIVER, S-9, AROCLOR 1254, Method: STANDARD PLATE active; positive | Test System: AMES SALMONELLA TYPHIMURIUM, Strain/Indicator: TA1535, Metabolic Activation: HAMSTER, LIVER, S-9, AROCLOR 1254 (10%), Method: PREINCUBATION active; positive | Test System: AMES SALMONELLA TYPHIMURIUM, Strain/Indicator: TA1535, Metabolic Activation: NONE, Method: FLASK VAPORIZATION active; positive | Test System: AMES SALMONELLA TYPHIMURIUM, Strain/Indicator: TA1535, Metabolic Activation: NONE, Method: PREINCUBATION active; positive | [3] active; positive | Test System: AMES SALMONELLA TYPHIMURIUM, Strain/Indicator: TA1535, Metabolic Activation: NONE, Method: SUSPENSION/PLATE active; positive | Test System: AMES SALMONELLA TYPHIMURIUM, Strain/Indicator: TA1535, Metabolic Activation: RAT, LIVER, S-9, AROCLOR 1254 (10%), Method: PREINCUBATION active; positive | Test System: AMES SALMONELLA TYPHIMURIUM, Strain/Indicator: TA1535, Metabolic Activation: RAT, LIVER, S-9, AROCLOR 1254, Method: FLASK VAPORIZATION active; positive | Test System: AMES SALMONELLA TYPHIMURIUM, Strain/Indicator: TA1535, Metabolic Activation: RAT, LIVER, S-9, AROCLOR 1254, Method: STANDARD PLATE active; positive | Test System: Ames Salmonella typhimurium, Strain/Indicator: YG7108, Metabolic Activation: None, Method: Standard plate active; positive | Test System: MOUSE LYMPHOMA, Strain/Indicator: L5178Y (TK+/TK-), Metabolic Activation: NONE, Method: SUSPENSION/PLATE active; positive
